In US11512090B2, “Muscarinic acetylcholine M1 receptor antagonists” (PIPELINE THERAPEUTICS, INC., priority 2018, dated 2022):
Where two headings read alike, the source gives them in different places.

Columns and labels:
Assay type in all cases: cell-based
M3 = M3 (Homo sapiens, UniProt P20309); experiment: In vitro functional assay of muscarinic acetylcholine receptor activity, M3
M2 = target: T1, M2 (Homo sapiens, UniProt P08172); experiment: In vitro functional assay of muscarinic acetylcholine receptor activity, M2
T1 sequence (P08172 1-466): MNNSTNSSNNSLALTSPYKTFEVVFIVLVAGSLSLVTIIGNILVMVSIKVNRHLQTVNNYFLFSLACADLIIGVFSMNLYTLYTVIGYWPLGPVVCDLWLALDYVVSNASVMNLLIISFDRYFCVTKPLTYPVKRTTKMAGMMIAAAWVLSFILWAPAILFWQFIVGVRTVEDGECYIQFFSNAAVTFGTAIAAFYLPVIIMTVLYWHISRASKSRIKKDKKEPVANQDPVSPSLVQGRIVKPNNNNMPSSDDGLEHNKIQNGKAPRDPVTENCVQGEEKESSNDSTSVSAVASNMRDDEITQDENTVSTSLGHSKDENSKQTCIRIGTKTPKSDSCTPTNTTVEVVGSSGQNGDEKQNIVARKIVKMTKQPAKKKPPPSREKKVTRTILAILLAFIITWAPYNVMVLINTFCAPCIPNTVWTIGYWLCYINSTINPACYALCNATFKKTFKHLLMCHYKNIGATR

human M1 receptor = target: T2, human M1 receptor (Homo sapiens, UniProt P11229); experiment: In vitro functional assay of muscarinic acetylcholine receptor activity (aequorin calcium flux, antagonist mode vs EC80 acetylcholine), M1
T2 sequence (P11229 1-460): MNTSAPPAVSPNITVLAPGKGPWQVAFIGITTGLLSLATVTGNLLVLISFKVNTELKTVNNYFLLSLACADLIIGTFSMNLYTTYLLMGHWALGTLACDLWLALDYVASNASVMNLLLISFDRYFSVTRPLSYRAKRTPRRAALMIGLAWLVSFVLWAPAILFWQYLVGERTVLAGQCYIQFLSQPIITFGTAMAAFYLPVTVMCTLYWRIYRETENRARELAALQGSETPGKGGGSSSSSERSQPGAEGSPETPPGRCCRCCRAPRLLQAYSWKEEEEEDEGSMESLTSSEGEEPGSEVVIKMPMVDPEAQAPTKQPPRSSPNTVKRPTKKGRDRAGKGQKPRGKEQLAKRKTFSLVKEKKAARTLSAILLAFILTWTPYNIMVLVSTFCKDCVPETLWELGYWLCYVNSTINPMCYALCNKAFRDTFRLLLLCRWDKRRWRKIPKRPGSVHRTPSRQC
How it was run: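 CHO-K1 cells stably co-expressing human M1 and aequorin were loaded with 5 uM coelenterazine h for 4 h at room temperature in the dark. IC50 came from the drop in luminescence.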

[1] = antagonist IC50 at M3, read-out: M3 IC50
[2] = antagonist IC50 at M2, read-out: M2 IC50
[3] = CHO-K1 cells stably expressing human M1 receptor with Aequorin, decrease in EC80 acetylcholine response, read-out: M1 IC50

M3, sequence (P20309 whole entry): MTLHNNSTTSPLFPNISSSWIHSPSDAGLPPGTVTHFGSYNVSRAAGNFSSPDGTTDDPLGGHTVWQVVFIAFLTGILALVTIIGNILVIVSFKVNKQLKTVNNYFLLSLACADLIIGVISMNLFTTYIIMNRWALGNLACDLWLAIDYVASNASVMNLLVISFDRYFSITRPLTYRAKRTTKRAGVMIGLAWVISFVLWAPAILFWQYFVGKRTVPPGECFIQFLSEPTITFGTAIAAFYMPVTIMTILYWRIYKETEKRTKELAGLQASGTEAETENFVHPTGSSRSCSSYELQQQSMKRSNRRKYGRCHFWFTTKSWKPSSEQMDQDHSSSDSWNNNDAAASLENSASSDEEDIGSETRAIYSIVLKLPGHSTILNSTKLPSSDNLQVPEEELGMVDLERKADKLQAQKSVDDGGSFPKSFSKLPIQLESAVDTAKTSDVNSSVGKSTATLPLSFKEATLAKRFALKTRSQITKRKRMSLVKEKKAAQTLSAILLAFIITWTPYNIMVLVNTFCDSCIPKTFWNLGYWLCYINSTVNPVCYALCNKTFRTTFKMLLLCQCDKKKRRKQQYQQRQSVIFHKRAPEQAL

Structure (SMILES) | IC50 (M3; [1]) | IC50 (M2; [2]) | IC50 (human M1 receptor; [3]) | IC50 (M2) | IC50 (human M1 receptor) | IC50 (M3)
C[C@H]1CN(c2cnccc2Cl)CCN1C(=O)CCS(=O)(=O)c1cccc2ncsc12 [Example 101, (S)-3-(benzo[d]thiazol-7-ylsulfonyl)-1-(4-(4-chloropyridin-3-yl)-2-methylpiperazin-1-yl)propan-1-one] | > 10000 nM | 1000 to 10000 nM | 100 to 1000 nM | – | – | –
O=C(CCS(=O)(=O)c1cccc2ncsc12)N1CCN(c2ccc(C(F)(F)F)cn2)CC1 [Example 102, 3-(benzo[d]thiazol-7-ylsulfonyl)-1-(4-(5-(trifluoromethyl)pyridin-2-yl)piperazin-1-yl)propan-1-one] | 1000 to 10000 nM | 1000 to 10000 nM | < 100 nM | – | – | –
Cc1nc2cccc(S(=O)(=O)CCC(=O)N3C[C@H]4CC[C@@H](C3)N4c3ccncc3F)c2o1 [Example 103, 1-((1R,5S)-8-(3-fluoropyridin-4-yl)-3,8-diazabicyclo[3.2.1]octan-3-yl)-3-((2-methylbenzo[d]oxazol-7-yl)sulfonyl)propan-1-one] | 1000 to 10000 nM | – | – | 100 to 1000 nM | < 100 nM | –
O=C(CCS(=O)(=O)c1cccc2nccn12)N1C[C@H]2CC[C@@H](C1)N2c1ccncc1F [Example 104, 1-((1R,5S)-8-(3-fluoropyridin-4-yl)-3,8-diazabicyclo[3.2.1]octan-3-yl)-3-(imidazo[1,2-a]pyridin-5-ylsulfonyl)propan-1-one] | 1000 to 10000 nM | 1000 to 10000 nM | – | – | < 100 nM | –
O=C(CCS(=O)(=O)c1cccc2ncsc12)N1CCN(c2c(Cl)cncc2Cl)CC1 [Example 105, 3-(benzo[d]thiazol-7-ylsulfonyl)-1-(4-(3,5-dichloropyridin-4-yl)piperazin-1-yl)propan-1-one] | 1000 to 10000 nM | 1000 to 10000 nM | 1000 to 10000 nM | – | – | –
O=C(CCS(=O)(=O)c1cccc2nccn12)N1CCN(c2ccc(C(F)(F)F)cn2)CC1 [Example 106, 3-(imidazo[1,2-a]pyridin-5-ylsulfonyl)-1-(4-(5-(trifluoromethyl)pyridin-2-yl)piperazin-1-yl)propan-1-one] | > 10000 nM | 1000 to 10000 nM | 1000 to 10000 nM | – | – | –
Cc1cncc(Cl)c1N1CCN(C(=O)CCS(=O)(=O)c2cccc3ncsc23)CC1 [Example 107, 3-(benzo[d]thiazol-7-ylsulfonyl)-1-(4-(3-chloro-5-methylpyridin-4-yl)piperazin-1-yl)propan-1-one] | 1000 to 10000 nM | > 10000 nM | 1000 to 10000 nM | – | – | –
Cc1cncc(Cl)c1N1CCN(C(=O)CCS(=O)(=O)c2cccc3ncsc23)[C@@H](C)C1 [Example 108, (S)-3-(benzo[d]thiazol-7-ylsulfonyl)-1-(4-(3-chloro-5-methylpyridin-4-yl)-2-methylpiperazin-1-yl)propan-1-one] | 1000 to 10000 nM | > 10000 nM | 100 to 1000 nM | – | – | –
Cc1nc2cccc(S(=O)(=O)CCC(=O)N3CCN(c4ccc(C(F)(F)F)cn4)CC3)c2o1 [Example 109, 3-((2-methylbenzo[d]oxazol-7-yl)sulfonyl)-1-(4-(5-(trifluoromethyl)pyridin-2-yl)piperazin-1-yl)propan-1-one] | > 10000 nM | > 10000 nM | 1000 to 10000 nM | – | – | –
O=C(CCS(=O)(=O)c1cccc2ncsc12)N1CCN(c2ccc(Cl)cn2)CC1 [Example 110, 3-(benzo[d]thiazol-7-ylsulfonyl)-1-(4-(5-chloropyridin-2-yl)piperazin-1-yl)propan-1-one] | 1000 to 10000 nM | > 10000 nM | 100 to 1000 nM | – | – | –
N#Cc1ccc(N2CCN(C(=O)CCS(=O)(=O)c3cccc4ncsc34)CC2)nc1 [Example 111, 6-(4-(3-(benzo[d]thiazol-7-ylsulfonyl)propanoyl)piperazin-1-yl)nicotinonitrile] | 1000 to 10000 nM | 1000 to 10000 nM | < 100 nM | – | – | –
O=C(CCS(=O)(=O)c1cccc2ncsc12)N1CCN(c2ncc(C(F)(F)F)cn2)CC1 [Example 112, 3-(benzo[d]thiazol-7-ylsulfonyl)-1-(4-(5-(trifluoromethyl)pyrimidin-2-yl)piperazin-1-yl)propan-1-one] | 1000 to 10000 nM | > 10000 nM | 1000 to 10000 nM | – | – | –
C[C@H]1CN(c2ccn3nccc3c2)CCN1C(=O)CCS(=O)(=O)c1cccc2ncsc12 [Example 113, (S)-3-(benzo[d]thiazol-7-ylsulfonyl)-1-(2-methyl-4-(pyrazolo[1,5-a]pyridin-5-yl)piperazin-1-yl)propan-1-one] | > 10000 nM | 1000 to 10000 nM | 1000 to 10000 nM | – | – | –
C[C@H]1CN(c2ccc(C#N)nc2)CCN1C(=O)CCS(=O)(=O)c1cccc2ncsc12 [Example 114, (S)-5-(4-(3-(benzo[d]thiazol-7-ylsulfonyl)propanoyl)-3-methylpiperazin-1-yl)picolinonitrile] | 1000 to 10000 nM | 1000 to 10000 nM | 100 to 1000 nM | – | – | –
C[C@H]1CN(c2cnc(C(F)(F)F)nc2)CCN1C(=O)CCS(=O)(=O)c1cccc2ncsc12 [Example 115, (S)-3-(benzo[d]thiazol-7-ylsulfonyl)-1-(2-methyl-4-(2-(trifluoromethyl)pyrimidin-5-yl)piperazin-1-yl)propan-1-one] | 1000 to 10000 nM | > 10000 nM | > 10000 nM | – | – | –
C[C@H]1CN(c2cc(F)c(F)c(F)c2)CCN1C(=O)CCS(=O)(=O)c1cccc2ncsc12 [Example 116, (S)-3-(benzo[d]thiazol-7-ylsulfonyl)-1-(2-methyl-4-(3,4,5-trifluorophenyl)piperazin-1-yl)propan-1-one] | 1000 to 10000 nM | 1000 to 10000 nM | 1000 to 10000 nM | – | – | –
C[C@H]1CN(c2cc[nH]c(=O)c2)CCN1C(=O)CCS(=O)(=O)c1cccc2ncsc12 [Example 117, (S)-4-(4-(3-(benzo[d]thiazol-7-ylsulfonyl)propanoyl)-3-methylpiperazin-1-yl)pyridin-2(1H)-one] | > 10000 nM | > 10000 nM | 1000 to 10000 nM | – | – | –
O=C(CNCCc1cccn2nccc12)N1C[C@H]2CC[C@@H](C1)N2c1ccncc1F [Example 118, 1-((1R,5S)-8-(3-fluoropyridin-4-yl)-3,8-diazabicyclo[3.2.1]octan-3-yl)-2-((2-(pyrazolo[1,5-a]pyridin-4-yl)ethyl)amino)ethan-1-one] | > 10000 nM | > 10000 nM | 1000 to 10000 nM | – | – | –
C[C@H]1CN(c2ccc(C#N)cn2)CCN1C(=O)CCS(=O)(=O)c1cccc2ncsc12 [Example 120, 6-[(3S)-4-[3-(1,3-benzothiazole-7-sulfonyl)propanoyl]-3-methylpiperazin-1-yl]pyridine-3-carbonitrile] | 1000 to 10000 nM | 1000 to 10000 nM | 100 to 1000 nM | – | – | –
O=C(CCS(=O)(=O)c1c(F)ccc2nccn12)N1CC2CCC(C1)N2c1ccc(F)cn1 [Example 121, 3-({6-fluoroimidazo[1,2-a]pyridin-5-yl}sulfonyl)-1-[8-(5-fluoropyridin-2-yl)-3,8-diazabicyclo[3.2.1]octan-3-yl]propan-1-one] | < 100 nM | 100 to 1000 nM | – | – | < 100 nM | –
N#Cc1cc(N2C3CCC2CN(C(=O)CCS(=O)(=O)c2cccc4ncsc24)C3)ccc1F [Example 122, 5-{3-[3-(1,3-benzothiazole-7-sulfonyl)propanoyl]-3,8-diazabicyclo[3.2.1]octan-8-yl}-2-fluorobenzonitrile] | – | > 10000 nM | – | – | < 100 nM | < 100 nM
Cc1cc(Cl)cnc1N1CCN(C(=O)CCNCc2cccc3nccn23)[C@H](C)C1 [Example 123, 1-[(2R)-4-(5-chloro-3-methylpyridin-2-yl)-2-methylpiperazin-1-yl]-3-[({imidazo[1,2-a]pyridin-5-yl}methyl)amino]propan-1-one] | 1000 to 10000 nM | > 10000 nM | 1000 to 10000 nM | – | – | –
Cc1cc(C#N)cnc1N1CCN(C(=O)CCS(=O)(=O)c2cccc3ncsc23)[C@@H](C)C1 [Example 124, 6-[(3S)-4-[3-(1,3-benzothiazole-7-sulfonyl)propanoyl]-3-methylpiperazin-1-yl]-5-methylpyridine-3-carbonitrile] | 100 to 1000 nM | 100 to 1000 nM | < 100 nM | – | – | –
N#Cc1ccc(N2CC3CCC2CN3C(=O)CCS(=O)(=O)c2cccc3ncsc23)nc1 (stereo not drawn) [Example 125, 6-{5-[3-(1,3-benzothiazole-7-sulfonyl)propanoyl]-2,5-diazabicyclo[2.2.2]octan-2-yl}pyridine-3-carbonitrile] | 100 to 1000 nM | 100 to 1000 nM | < 100 nM | – | – | –
